Assay results published in patent US11186565B2, “Aromatic compound” (TAKEDA PHARMACEUTICAL COMPANY LIMITED, priority 2017, dated 2021).

target: T1, human GPR40 (Homo sapiens, UniProt O14842); test: Human GPR40 agonist activity with increase in intracellular Ca2+ concentration as an index; assay type: cell-based; details: test compound at final concentration 1 μM; CHO(dhfr−) cells stably expressing human GPR40; FLIPR Ca2+ fluorescence; 100% = 10 μM compound of WO 2015/020184 Example 153, 0% = DMSO
T1 construct: expressed in transfected cells
T1 sequence (O14842 whole entry): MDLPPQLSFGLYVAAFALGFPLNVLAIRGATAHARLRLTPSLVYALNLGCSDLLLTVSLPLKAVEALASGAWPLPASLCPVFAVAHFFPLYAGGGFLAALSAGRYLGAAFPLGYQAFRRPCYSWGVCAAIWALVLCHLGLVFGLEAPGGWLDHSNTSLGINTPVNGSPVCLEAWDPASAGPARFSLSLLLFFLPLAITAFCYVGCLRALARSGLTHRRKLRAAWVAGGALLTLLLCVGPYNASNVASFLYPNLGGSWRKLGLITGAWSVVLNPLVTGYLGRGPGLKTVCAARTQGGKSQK
Protocol: Evaluation of Human GPR40 Agonist Activity with Increase in Intracellular Ca^2+ Concentration as an Index
CHO(dhfr−) cells that stably expressed human GPR40 were suspended in MEMα (Wako Pure Chemical Industries, Ltd.) containing 10% dialyzed serum (Thermo Fisher Scientific), 10 mM HEPES (Thermo Fisher Scientific), 100 U/mL penicillin, 100 μg/mL streptomycin (Wako Pure Chemical Industries, Ltd.), and plated on a 384 well black/clear cell culture plate at 10,000 cells/well. After culture overnight in a CO2 incubator at 37° C., the culture supernatant was removed, and loading buffer [Ca^2+ probe attached to Calcium Kit II-iCellux (DOJINDO) was dissolved in assay buffer (20 mM HEPES, 0.1% fatty acid-free BSA (Wako Pure Chemical Industries, Ltd.), 2.5 mM probenecid (DOJINDO)-containing HESS (Thermo Fisher Scientific))] was added at 30 μL/well. After leaving for 1 hr at room temperature under light shielding, assay buffer containing the test compound at a final concentration of 1 μM was added at 10 μL/well in fluorescence plate reader FLIPR Tetra (Molecular Devices), and the fluorescence amount was successively measured. Human GPR40 agonist activity was calculated using an increase in the intracellular Ca^2+ concentration as an index, wherein the activity of 10 μM of the compound of WO 2015/020184 (Example 153: 3-cyclopropyl-3-(2-((1-(2-((2-fluoro-2-methylpropyl)(4-methylpyridin-2-yl)carbamoyl)-5-methoxyphenyl)piperidin-4-yl)methoxy)pyridin-4-yl)propanoic acid) was 100%, and the activity when DMSO was added instead of the test compound was 0%.

Q: With COc1ccc(-c2ccc(OC)nc2)c(O[C@H]2CC[C@H](Oc3cc(C(CC(=O)O)C4CC4)ccn3)CC2)c1 (stereo partly drawn) [Example 7, 3-cyclopropyl-3-(2-((trans-4-(5-methoxy-2-(6-methoxypyridin-3-yl)phenoxy)cyclohexyl)oxy)pyridin-4-yl)propanoic acid] as the molecule, how does the “activity (human GPR40 agonist activity)” value read?
A: 80%

Q: With COc1ccc(C2CCN(CC(F)(F)F)CC2)c(O[C@H]2CC[C@H](Oc3cc(C(CC(=O)O)C4CC4)ccn3)CC2)c1 (stereo partly drawn) [Example 1, 3-cyclopropyl-3-(2-((trans-4-(5-methoxy-2-(1-(2,2,2-trifluoroethyl)piperidin-4-yl)phenoxy)cyclohexyl)oxy)pyridin-4-yl)propanoic acid] as the molecule, how does the “activity (human GPR40 agonist activity)” value read?
A: 86%

Q: How did the “activity (human GPR40 agonist activity)” value turn out when COc1cc(N2CCC(COc3cc([C@@H](CC(=O)O)C4CC4)ccn3)CC2)c(C2CCN(CC(F)(F)F)CC2)cn1 [Example 4, (3S)-3-cyclopropyl-3-(2-((1-(2-methoxy-5-(1-(2,2,2-trifluoroethyl)piperidin-4-yl)pyridin-4-yl)piperidin-4-yl)methoxy)pyridin-4-yl)propanoic acid] was run?
A: 110%

Q: COc1cc(N2CCC(COc3cc([C@@H](CC(=O)O)C4CC4)ccn3)CC2)c(NCC(F)(F)C(F)(F)F)cn1 [Example 6, (3S)-3-cyclopropyl-3-(2-((1-(2-methoxy-5-((2,2,3,3,3-pentafluoropropyl)amino)pyridin-4-yl)piperidin-4-yl)methoxy)pyridin-4-yl)propanoic acid] was tested. Which “activity (human GPR40 agonist activity)” value did it give?
A: 106%

Q: How did the “activity (human GPR40 agonist activity)” value turn out when COc1ccc(-c2cnc(OCC(F)(F)F)nc2)c(O[C@H]2CC[C@H](Oc3cc(C(CC(=O)O)C4CC4)ccn3)CC2)c1 (stereo partly drawn) [Example 3, 3-cyclopropyl-3-(2-((trans-4-(5-methoxy-2-(2-(2,2,2-trifluoroethoxy)pyrimidin-5-yl)phenoxy)cyclohexyl)oxy)pyridin-4-yl)propanoic acid] was run?
A: 84%
